Measurements as given in ChEMBL document CHEMBL1201862, “PubChem BioAssay data set” (2004).
Structures can show the parent of a compound that is named as a salt. The source made the active and inactive calls.

Tests used:
[1] = target: Eukaryotic translation initiation factor 4E (Mus musculus, UniProt P63073); test: eIF4E–eIF4G protein interaction inhibitors, dose response, biochemical, TR-FRET (AID 855); format: functional;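 note: potency for disrupting eIF4E binding to eIF4GI seen as loss of FRET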
P388 = test: cells; format: functional; conditions: Mus musculus
SN12K1 = test: cells; format: functional; conditions: Homo sapiens
P388/ADR = test: cells; format: functional; conditions: Mus musculus
[2] = target: T1, DNA repair protein RAD52 homolog (Homo sapiens, UniProt P43351); format: functional, biochemical
T1 sequence (P43351 whole entry): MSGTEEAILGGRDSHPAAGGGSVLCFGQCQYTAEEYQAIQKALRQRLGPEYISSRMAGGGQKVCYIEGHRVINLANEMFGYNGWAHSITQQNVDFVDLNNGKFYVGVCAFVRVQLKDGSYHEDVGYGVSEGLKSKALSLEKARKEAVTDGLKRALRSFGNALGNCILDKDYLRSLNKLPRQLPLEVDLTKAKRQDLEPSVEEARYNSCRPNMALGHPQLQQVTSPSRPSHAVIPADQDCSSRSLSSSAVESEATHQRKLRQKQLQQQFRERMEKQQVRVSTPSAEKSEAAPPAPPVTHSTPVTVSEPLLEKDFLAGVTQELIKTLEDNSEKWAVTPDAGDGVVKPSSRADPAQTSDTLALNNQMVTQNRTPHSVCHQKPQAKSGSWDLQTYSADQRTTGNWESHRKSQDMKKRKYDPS

[3] = target: T2, Polyadenylate-binding protein 1 (Homo sapiens, UniProt P11940); test: PABP1 MLLE–PAM2 interaction inhibitors, dose response, miRNA deadenylation inhibitor project, biochemical, fluorescence polarization, Cy5-PAM2 peptide, secondary (AID 602260); format: functional; conditions: read-out: IC50_Mean
[4] = target: T2, Polyadenylate-binding protein 1; test: PABP1 MLLE–PAM2 binding inhibitor potency, dose response, biochemical, fluorescence polarization, FITC-PAM2 peptide (AID 602259); format: functional; conditions: read-out: IC50_Mean
cells [5] = format: functional
[6] = target: T3, Endoribonuclease toxin MazF (Escherichia coli K-12, UniProt P0AE70); test: fluorescent RNA oligo signal without MazF, dose response, counter-screen for MazEF activator project, biochemical, fluorescence, single-stranded RNase substrate (AID 588502); format: functional
T3 sequence (P0AE70 whole entry): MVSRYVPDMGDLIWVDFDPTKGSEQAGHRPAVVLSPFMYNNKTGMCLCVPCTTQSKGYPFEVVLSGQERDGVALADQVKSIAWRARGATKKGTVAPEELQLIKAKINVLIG

[7] = target: T3, Endoribonuclease toxin MazF; test: MazF toxin RNase activators, dose response, biochemical, fluorescence, single-stranded RNA substrate, uHTS hits (AID 588481); format: functional
[8] = growth suppression of PTEN-null colon cells, dose response, cell-based, HCT116 PTEN knockout (AID 1047); format: functional;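 note: HCT116 colon tumor cells with PTEN knocked out; cells exposed to compound for 60 hours before readout; potency for loss of cell viability measured by luminescence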
[9] = cytotoxicity in HPDE-C7 cells, cell-based, fluorescence, HTS (AID 430); format: functional; conditions: Homo sapiens
[10] = growth suppression of beta-catenin-knockout colon cells, dose response, cell-based, HCT116, human colon tumor (AID 1045); format: functional;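 note: HCT116 colon tumor cells with beta catenin knocked out; cells exposed to compound for 60 hours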
[11] = cytotoxicity in KRAS-transformed pancreatic duct cells, primary screen, cell-based, fluorescence, HTS (AID 431); format: functional; conditions: Homo sapiens;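 note: cell line used: HPDE-C7K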
[12] = Luminescence Cell-Based Dose Retest to Confirm Inhibitors of Cancer Stem Cells. [Related pubchem assays (depositor defined):AID2717, AID2721]; format: functional; conditions: Homo sapiens
[13] = HEp-2 cell cytotoxicity, dose response, cytotoxicity control for RSV inhibitor project, HTS (AID 2410); format: functional; conditions: human respiratory syncytial virus
cells [14] = test: cells
Cytochrome P450 2D6 = Cytochrome P450 2D6 (Homo sapiens, UniProt P10635);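 note: CYP2D6 member of a cytochrome P450 panel assay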
[15] = Shn3 3'UTR reporter inhibitors, dose response, cell-based, Clone20 osteoblasts, firefly luciferase, cherry-picked (AID 624132); format: functional;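 note: firefly luciferase luminescence from reporter carrying the Shn3 3'UTR in osteoblasts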
[16] = control 3'UTR Renilla luciferase suppression, dose response, counter-screen for Shn3 inhibitor project, cell-based, Clone20-Shn3RL, cherry-picked (AID 624133); format: functional

Sequence of Eukaryotic translation initiation factor 4E (P63073 whole entry): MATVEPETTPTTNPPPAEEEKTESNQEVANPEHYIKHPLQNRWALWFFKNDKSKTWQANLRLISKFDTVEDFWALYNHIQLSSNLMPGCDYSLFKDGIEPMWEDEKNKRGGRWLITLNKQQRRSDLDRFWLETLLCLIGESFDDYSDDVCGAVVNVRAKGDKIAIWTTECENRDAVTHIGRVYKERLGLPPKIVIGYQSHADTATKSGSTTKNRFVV
T2 sequence (P11940 whole entry): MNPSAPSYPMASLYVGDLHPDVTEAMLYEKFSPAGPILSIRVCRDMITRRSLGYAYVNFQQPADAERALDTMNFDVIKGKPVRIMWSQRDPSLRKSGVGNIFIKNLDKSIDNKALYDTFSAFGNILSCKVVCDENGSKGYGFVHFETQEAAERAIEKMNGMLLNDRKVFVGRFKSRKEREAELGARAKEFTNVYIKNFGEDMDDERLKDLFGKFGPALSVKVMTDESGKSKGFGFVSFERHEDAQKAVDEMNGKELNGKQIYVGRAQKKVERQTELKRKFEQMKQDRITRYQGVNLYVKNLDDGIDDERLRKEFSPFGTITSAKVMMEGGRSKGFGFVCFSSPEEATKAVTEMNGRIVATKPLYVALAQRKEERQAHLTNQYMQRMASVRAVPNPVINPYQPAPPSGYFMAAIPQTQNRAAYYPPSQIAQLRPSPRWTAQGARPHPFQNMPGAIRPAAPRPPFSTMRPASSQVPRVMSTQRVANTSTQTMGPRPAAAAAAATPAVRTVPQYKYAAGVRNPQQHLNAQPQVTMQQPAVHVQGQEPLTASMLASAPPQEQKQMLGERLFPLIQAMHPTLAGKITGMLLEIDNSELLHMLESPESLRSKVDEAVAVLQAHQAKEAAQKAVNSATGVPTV
Sequence of Cytochrome P450 2D6 (P10635 whole entry): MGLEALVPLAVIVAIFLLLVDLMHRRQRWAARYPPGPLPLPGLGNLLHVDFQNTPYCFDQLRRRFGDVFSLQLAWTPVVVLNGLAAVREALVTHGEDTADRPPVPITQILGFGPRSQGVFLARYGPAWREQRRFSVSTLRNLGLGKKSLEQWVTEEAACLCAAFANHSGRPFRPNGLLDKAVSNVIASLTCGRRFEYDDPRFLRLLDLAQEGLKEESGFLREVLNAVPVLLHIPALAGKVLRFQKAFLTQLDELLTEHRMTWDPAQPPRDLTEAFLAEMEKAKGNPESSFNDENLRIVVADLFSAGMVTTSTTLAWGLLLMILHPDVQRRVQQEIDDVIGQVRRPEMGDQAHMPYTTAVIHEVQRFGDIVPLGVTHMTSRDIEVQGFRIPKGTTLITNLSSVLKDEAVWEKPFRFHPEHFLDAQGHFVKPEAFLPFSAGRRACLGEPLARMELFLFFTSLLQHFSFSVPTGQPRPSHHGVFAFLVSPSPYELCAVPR

## CCC(=O)NC(=S)Nc1ccc(NC(=O)c2ccc([N+](=O)[O-])cc2)cc1
[1]
  IC50: > 64 µM (inactive)

## c1ccc(C(c2ccccc2)[P+](c2ccccc2)(c2ccccc2)c2ccccc2)cc1
P388
  GI50: 0.382 µM (active)
SN12K1
  GI50: 0.345 µM (active)
P388/ADR
  GI50: 12.4 µM (inactive)

## COc1cccc2c1C(=O)c1c(O)c3c(c(O)c1C2=O)CC(O)(C(=O)CO)CC3OC1CC(N)C(I)C(C)O1 (stereo not given)
P388
  GI50: 0.0612 µM (active)
P388/ADR
  GI50: 0.547 µM (active)

## NCCc1cc(O)c(O)cc1O [OXIDOPAMINE HYDROCHLORIDE]
[2]
  AC50: 4.12 µM (active)
[3]
  IC50: > 66 µM (inactive)
[4]
  IC50: > 66 µM (inactive)

## O=c1oc(/C=C/c2ccc([N+](=O)[O-])s2)nc2ccccc12
Cells [5]
  IC50: 10.7 µM (active)
[6]
  EC50: > 99 µM (inactive)
[7]
  EC50: > 99 µM (inactive)

## CC1(C)Cc2c(C#N)c(N3CCN(C(=O)c4ccco4)CC3)nc(Cc3ccccc3)c2CO1
[8]
  EC50: 23.3 µM (active)
[9]
  EC50: 17.2 µM (active)
[10]
  EC50: 26 µM (active)
[11]
  EC50: 11.8 µM (active)

## CN(Cc1cnc2nc(N)nc(N)c2n1)c1ccc(C(=O)NC(CCC(=O)O)C(=O)O)c2ccccc12 (stereo not given)
P388
  GI50: < 0.01 µM (active)
SN12K1
  GI50: 0.01 µM (active)
P388/ADR
  GI50: < 0.01 µM (active)

## CCOC(=O)C(C)Sc1ccc2nnc(-c3ccc(F)cc3)n2n1 (stereo not given)
[1]
  IC50: > 64 µM (inactive)

## COc1ccccc1N1CCN(S(=O)(=O)Cc2ccccc2Cl)CC1
[1]
  IC50: > 64 µM (inactive)

## O=C(Nc1ccc(CN2CCOCC2)cc1)c1ccc(-c2ccc(Cl)cc2Cl)o1
[12]
  AC50: 5.22 µM (active)
[1]
  IC50: 50 µM (inactive)

## C#CCN1C(=O)S/C(=C\c2cc3c(cc2OC)OCO3)C1=O
[6]
  EC50: 17.1 µM (active)
[7]
  EC50: 12.5 µM (active)

## Cc1ccc(-c2ccc(/C=N/O)o2)cc1[N+](=O)[O-]
[13]
  CC50: 36.3 µM (active)
Cells [14]
  IC50: 33.5 µM (active)

## CSc1nc(SC)c2cnn(CC3CO3)c2n1 (stereo not given)
P388
  GI50: 15.6 µM (inactive)
SN12K1
  GI50: 8.2 µM (inactive)
P388/ADR
  GI50: 11.5 µM (inactive)

## O=[N+]([O-])c1ccc(Cl)c(S(=O)(=O)Nc2cccc(-c3ccc(N4CCOCC4)nn3)c2)c1
[13]
  CC50: 37.3 µM (active)
Cells [14]
  IC50: 32.5 µM (active)

## O=C(CCCOc1ccc(Cl)cc1Cl)Nc1ccccc1C(=O)O
[13]
  CC50: 9.45 µM (active)
Cells [14]
  IC50: 5.66 µM (active)

## Cc1c2cc[n+](CCN3CCCCC3)cc2c(C)c2c1[nH]c1ccc(O)cc12
P388
  GI50: 0.0111 µM (active)
SN12K1
  GI50: 1.5 µM (inactive)
Cytochrome P450 2D6
  AC50: 5.01 µM (inconclusive)
P388/ADR
  GI50: 1.37 µM (inactive)

## CCC(=O)c1cn(CC(=O)Nc2ccccc2Cl)c2ccccc12
[15]
  AC50: < 0.26 µM (active)
[16]
  AC50: 6.05 µM (active)
[6]
  EC50: > 99 µM (inactive)
[7]
  EC50: > 99 µM (inactive)

## Nc1c(S(=O)(=O)O)cc2cc(S(=O)(=O)O)ccc2c1/N=N/c1ccc(-c2ccc(/N=N/c3c(N)c(S(=O)(=O)O)cc4cc(S(=O)(=O)O)ccc34)c(S(=O)(=O)O)c2)cc1
P388
  GI50: > 79.6 µM (inactive)
SN12K1
  GI50: > 100 µM (inactive)
P388/ADR
  GI50: > 100 µM (inactive)

## Cc1cccc2sc(NC(=O)CN(C)S(=O)(=O)c3ccc(Br)s3)nc12
[9]
  EC50: 12.2 µM (active)
[11]
  EC50: 12.2 µM (active)

## COc1cc2cc3c4cc(OC)c(OC)cc4cc[n+]3cc2cc1OC
P388
  GI50: 0.881 µM (active)
SN12K1
  GI50: > 61.9 µM (inactive)
P388/ADR
  GI50: 12.6 µM (inactive)
